Laboratory results reported in patent US20240358693A1, “METHODS OF TREATING PAIN” (Aisa Pharma, Inc., priority 2023, published 2024).

Tested on: participants with SSc-RP
Experiment: Average duration of weekly RP attacks (minutes)
Format: in vivo, human
Details: Tadalafil 5 mg
Excerpt: The absolute change in average duration of weekly RP attacks from baseline to the end of each dosing period was and will be a secondary outcome variable. The sponsor-developed participant-informed diary was and will be used to record data. Average duration of weekly RP attacks is defined as the total duration of RP attacks divided by total number of RP attacks within the last 7 days of each dosing period. Total duration of RP attacks during the last 7 days of screening period divided by the total number of RP attacks will be used as baseline for the analysis of all periods. The variable will be calculated similar to frequency data as before.

[1] = n=1, Excluding Outliers, ITT Part A
[2] = Baseline RCS subgroup 2 (unnamed), ITT Part A
[3] = Excluding Outliers, Baseline RCS subgroup 2 (unnamed), ITT Part A
[4] = Excluding Outliers, ITT Population - Part A
[5] = Excluding Outliers, by Baseline RCS, subgroup 2, ITT Population - Part A
[6] = by Baseline RCS, subgroup 2, ITT Population - Part A

Q: For `CN1CC(=O)N2[C@H](c3ccc4c(c3)OCO4)c3[nH]c4ccccc4c3C[C@@H]2C1=O` [Tadalafil, tadalafil], which “Average Duration of Weekly Symptomatic RP Attacks, Change from Baseline, Mean” value [1] is on record?
A: The value was -4.58 min.

Q: What about the “Average Duration of Weekly Symptomatic RP Attacks, Change from Baseline, Median” value [1] of the same compound?
A: Its value is -4.58 min.

Q: What about the “Average Duration of Weekly Symptomatic RP Attacks, Mean” value [1] of the same compound?
A: Its value is 6.00 min.

Q: What about the “Average Duration of Weekly Symptomatic RP Attacks, Median” value [1] of the same compound?
A: The value was 6.00 min.

Q: And the “Average Duration of Weekly Symptomatic RP Attacks, Percent Change from Baseline, Mean” value [1]?
A: The value was −43.31%.

Q: And the “Average Duration of Weekly Symptomatic RP Attacks, Percent Change from Baseline, Median” value [1]?
A: Its value is −43.31%.

Q: What about the “Average Duration of Weekly Symptomatic RP Attacks, Change from Baseline, Mean” value (n=2, ITT Part A) of the same compound?
A: Its value is 140.74 min.

Q: What about the “Average Duration of Weekly Symptomatic RP Attacks, Change from Baseline, Median” value (n=2, ITT Part A) of the same compound?
A: The value was 140.74 min.

Q: What about the “Average Duration of Weekly Symptomatic RP Attacks, Mean” value (n=2, ITT Part A) of the same compound?
A: The value was 412.29 min.

Q: And the “Average Duration of Weekly Symptomatic RP Attacks, Median” value (n=2, ITT Part A)?
A: The value was 412.29 min.

Q: What about the “Average Duration of Weekly Symptomatic RP Attacks, Percent Change from Baseline, Mean” value (n=2, ITT Part A) of the same compound?
A: The value was 5.21%.

Q: And the “Average Duration of Weekly Symptomatic RP Attacks, Percent Change from Baseline, Median” value (n=2, ITT Part A)?
A: Its value is 5.21%.

Q: What about the “Average Duration of Weekly Symptomatic RP Attacks, Change from Baseline, Mean” value [2] of the same compound?
A: Its value is 140.74 min.

Q: And the “Average Duration of Weekly Symptomatic RP Attacks, Change from Baseline, Median” value [2]?
A: The value was 140.74 min.

Q: And the “Average Duration of Weekly Symptomatic RP Attacks, Mean” value [2]?
A: Its value is 412.29 min.

Q: And the “Average Duration of Weekly Symptomatic RP Attacks, Median” value [2]?
A: The value was 412.29 min.

Q: And the “Average Duration of Weekly Symptomatic RP Attacks, Percent Change from Baseline, Mean” value [2]?
A: The value was 5.21%.

Q: And the “Average Duration of Weekly Symptomatic RP Attacks, Percent Change from Baseline, Median” value [2]?
A: Its value is 5.21%.

Q: What about the “Average Duration of Weekly Symptomatic RP Attacks, Change from Baseline, Mean” value [3] of the same compound?
A: Its value is -4.58 min.

Q: And the “Average Duration of Weekly Symptomatic RP Attacks, Change from Baseline, Median” value [3]?
A: Its value is -4.58 min.

Q: And the “Average Duration of Weekly Symptomatic RP Attacks, Mean” value [3]?
A: The value was 6.00 min.

Q: And the “Average Duration of Weekly Symptomatic RP Attacks, Median” value [3]?
A: Its value is 6.00 min.

Q: What about the “Average Duration of Weekly Symptomatic RP Attacks, Percent Change from Baseline, Mean” value [3] of the same compound?
A: Its value is −43.31%.

Q: And the “Average Duration of Weekly Symptomatic RP Attacks, Percent Change from Baseline, Median” value [3]?
A: The value was −43.31%.

Q: What about the “Average Duration of Weekly RP Attacks (All Attacks) Change from Baseline, Mean” value [4] of the same compound?
A: Its value is -4.98 min.

Q: What about the “Average Duration of Weekly RP Attacks (All Attacks) Change from Baseline, Median” value [4] of the same compound?
A: The value was -4.98 min.

Q: What about the “Average Duration of Weekly RP Attacks (All Attacks) Percent Change from Baseline, Mean” value [4] of the same compound?
A: Its value is −45.55%.

Q: And the “Average Duration of Weekly RP Attacks (All Attacks) Percent Change from Baseline, Median” value [4]?
A: Its value is −45.55%.

Q: And the “Average Duration of Weekly RP Attacks (All Attacks), Mean” value (“Average Duration … (All Attacks), Mean” below) [4]?
A: The value was 5.95 min.

Q: And the “Average Duration of Weekly RP Attacks (All Attacks), Median” value (“Average Duration … (All Attacks), Median” below) [4]?
A: Its value is 5.95 min.

Q: What about the “Average Duration of Weekly RP Attacks (All Attacks) Change from Baseline, Mean” value [5] of the same compound?
A: Its value is -4.98 min.

Q: And the “Average Duration of Weekly RP Attacks (All Attacks) Change from Baseline, Median” value [5]?
A: The value was -4.98 min.

Q: And the “Average Duration of Weekly RP Attacks (All Attacks) Percent Change from Baseline, Mean” value [5]?
A: Its value is −45.55%.

Q: What about the “Average Duration of Weekly RP Attacks (All Attacks) Percent Change from Baseline, Median” value [5] of the same compound?
A: Its value is −45.55%.

Q: And the “Average Duration … (All Attacks), Mean” value [5]?
A: Its value is 5.95 min.

Q: And the “Average Duration … (All Attacks), Median” value [5]?
A: Its value is 5.95 min.

Q: And the “Average Duration of Weekly RP Attacks (All Attacks) Change from Baseline, Mean” value (ITT Part A)?
A: The value was 91.80 min.

Q: What about the “Average Duration of Weekly RP Attacks (All Attacks) Change from Baseline, Median” value (ITT Part A) of the same compound?
A: The value was 91.80 min.

Q: What about the “Average Duration of Weekly RP Attacks (All Attacks) Percent Change from Baseline, Mean” value (ITT Part A) of the same compound?
A: Its value is −7.81%.

Q: And the “Average Duration of Weekly RP Attacks (All Attacks) Percent Change from Baseline, Median” value (ITT Part A)?
A: Its value is −7.81%.

Q: What about the “Average Duration … (All Attacks), Mean” value (ITT Part A) of the same compound?
A: The value was 412.26 min.

Q: What about the “Average Duration … (All Attacks), Median” value (ITT Part A) of the same compound?
A: The value was 412.26 min.

Q: What about the “Average Duration of Weekly RP Attacks (All Attacks) Change from Baseline, Mean” value [6] of the same compound?
A: The value was 91.80 min.

Q: What about the “Average Duration of Weekly RP Attacks (All Attacks) Change from Baseline, Median” value [6] of the same compound?
A: Its value is 91.80 min.

Q: What about the “Average Duration of Weekly RP Attacks (All Attacks) Percent Change from Baseline, Mean” value [6] of the same compound?
A: Its value is −7.81%.

Q: What about the “Average Duration of Weekly RP Attacks (All Attacks) Percent Change from Baseline, Median” value [6] of the same compound?
A: The value was −7.81%.

Q: And the “Average Duration … (All Attacks), Mean” value [6]?
A: Its value is 412.26 min.

Q: What about the “Average Duration … (All Attacks), Median” value [6] of the same compound?
A: The value was 412.26 min.
